ChEMBL document CHEMBL3867475, “Discovery of furo[2,3-d][1,3]thiazinamines as beta amyloid cleaving enzyme-1 (BACE1) inhibitors” (Bioorg Med Chem Lett, 2016)

Tests used:
[1] = Chemical stability of compound in aqueous condition at pH 1 to 10 at 40 degC measured up to 24 hrs; type: physicochemical; details: buffer, pH 1, 24 h
[2] = Permeability from basolateral side to apical side in human Caco2 cells; type: ADME, cell-based; details: Caco-2, read-out: permeability
[3] = Permeability from apical side to basolateral side in human Caco2 cells; type: ADME, cell-based; details: Caco-2, read-out: permeability

Row | Stability [1] | Papp B→A [2] [×10⁻⁶ cm/s] | Papp A→B [3] [×10⁻⁶ cm/s] | Compound
1 | Stable | – | – | NC1=N[C@@]2(c3cc(NC(=O)c4ccc(F)cn4)ccc3F)OCC[C@H]2CS1
2 | Stable | 24.4 | 17.7 | NC1=N[C@@]2(c3cc(NC(=O)c4ccc(Cl)cn4)ccc3F)OCC[C@H]2CS1
3 | Stable | 54.2 | 16.4 | N#Cc1ccc(C(=O)Nc2ccc(F)c([C@@]34N=C(N)SC[C@@H]3CCO4)c2)nc1
4 | Stable | – | – | NC1=N[C@@]2(c3cc(NC(=O)c4ccc(Br)cn4)ccc3F)OCC[C@H]2CS1

More lines, now with the values behind:

Row | Compound | Stability [1] | Papp B→A [2] [×10⁻⁶ cm/s] | Papp A→B [3] [×10⁻⁶ cm/s]
5 | NC1=N[C@@]2(c3cc(NC(=O)c4ccccn4)ccc3F)OCC[C@H]2CS1 | Stable | – | –
6 | COc1cnc(C(=O)Nc2ccc(F)c([C@@]34N=C(N)SC[C@@H]3CCO4)c2)cn1 | Stable | – | –
7 | NC1=N[C@@]2(c3cc(NC(=O)c4ccc(OC(F)F)cn4)ccc3F)OCC[C@H]2CS1 | Stable | – | –
8 | NC1=N[C@@]2(c3cc(NC(=O)c4ncccc4F)ccc3F)OCC[C@H]2CS1 | Stable | – | –
9 | NC1=N[C@@]2(c3cc(NC(=O)c4ncc(Cl)cc4Cl)ccc3F)OCC[C@H]2CS1 | Stable | – | –
